This is an account of results in ChEMBL document CHEMBL5523674, “Design, synthesis, and biological evaluation of 2-(naphthalen-1-yloxy)-N-phenylacetamide derivatives as TRPM4 inhibitors for the treatment of prostate cancer” (Bioorg Med Chem, 2024).

SMILES strings stand for the structures. pIC50: −log10 of the molar value. Active and inactive are the calls of the source. The calls are words filed in the database; no cut-off is given here.

In assay [1] the test system is LNCaP. Put plainly: Antiproliferative activities against human LNCaP cells assessed as cell viability measured after 72 hrs by CCK8 assay. In kind it is functional, cell-based. Background: Tetrazolium dyes change colour on reduction, which living cells bring about.
Assay [2] relates to LNCaP C4-2B. Put plainly: Antiproliferative activities against human LNCaP C4-2B cells assessed as cell viability measured after 72 hrs by CCK8 assay. In kind it is functional, cell-based.
The subject of assay [3] is LNCaP C4-2B. Put plainly: Inhibition of colony formation in human LNCaP C4-2B cells measured after 14 days incubation by Crystal-violet staining based assay. In kind it is functional, cell-based. The following applies: dose 10-40 µM, time 14.0 day.
Assay [4] has as its system LNCaP C4-2B. Put plainly: Induction of apoptosis in human LNCaP C4-2B cells assessed as apoptotic cells at 5 uM measured after 48 hrs of incubation by Annexin V-FITC staining based flow cytometry relative to control. It counts as functional. For orientation: In flow cytometry, cells or beads pass a laser one at a time.
Assay [5] concerns LNCaP C4-2B. Put plainly: Induction of apoptosis in human LNCaP C4-2B cells assessed as apoptotic cells at 10 uM measured after 48 hrs of incubation by Annexin V-FITC staining based flow cytometry relative to control. It counts as functional.
The subject of assay [6] is LNCaP C4-2B. Put plainly: Induction of apoptosis in human LNCaP C4-2B cells assessed as apoptotic cells at 20 uM measured after 48 hrs of incubation by Annexin V-FITC staining based flow cytometry relative to control. It counts as functional.
Assay [7] relates to LNCaP C4-2B. Put plainly: Induction of apoptosis in human LNCaP C4-2B cells assessed as apoptotic cells at 40 uM measured after 48 hrs of incubation by Annexin V-FITC staining based flow cytometry relative to control. It counts as functional.
Assay [8] deals with LNCaP C4-2B. Put plainly: Induction of cell cycle arrest in human LNCaP C4-2B cells assessed as accumulation cells at G0/G1 phase at 5 uM measured after 48 hrs incubation by flow cytometry (reference value: 70.82%). It counts as functional.
Assay [9] relates to LNCaP C4-2B. Put plainly: Induction of cell cycle arrest in human LNCaP C4-2B cells assessed as accumulation cells at G2/M phase at 5 uM measured after 48 hrs incubation by flow cytometry (reference value: 10.85%). In kind it is functional.
Assay [10] has as its system LNCaP C4-2B. Put plainly: Induction of cell cycle arrest in human LNCaP C4-2B cells assessed as accumulation cells at S phase at 5 uM measured after 48 hrs incubation by flow cytometry (reference value: 18.33%). In kind it is functional.
Assay [11] deals with LNCaP C4-2B. Put plainly: Induction of cell cycle arrest in human LNCaP C4-2B cells assessed as accumulation cells at G0/G1 phase at 10 uM measured after 48 hrs incubation by flow cytometry (reference value: 70.82%). It counts as functional.
For assay [12], the system named is LNCaP C4-2B. Put plainly: Induction of cell cycle arrest in human LNCaP C4-2B cells assessed as accumulation cells at G2/M phase at 10 uM measured after 48 hrs incubation by flow cytometry (reference value: 10.85%). In kind it is functional.
The test system of assay [13] is LNCaP C4-2B. Put plainly: Induction of cell cycle arrest in human LNCaP C4-2B cells assessed as accumulation cells at S phase at 10 uM measured after 48 hrs incubation by flow cytometry (reference value: 18.33%). It counts as functional.
Assay [14] has as its system LNCaP C4-2B. Put plainly: Induction of cell cycle arrest in human LNCaP C4-2B cells assessed as accumulation cells at G0/G1 phase at 20 uM measured after 48 hrs incubation by flow cytometry (reference value: 70.82%). It counts as functional.
For assay [15], the system named is LNCaP C4-2B. Put plainly: Induction of cell cycle arrest in human LNCaP C4-2B cells assessed as accumulation cells at G2/M phase at 20 uM measured after 48 hrs incubation by flow cytometry (reference value: 10.85%). In kind it is functional.
In assay [16] the test system is LNCaP C4-2B. Put plainly: Induction of cell cycle arrest in human LNCaP C4-2B cells assessed as accumulation cells at S phase at 20 uM measured after 48 hrs incubation by flow cytometry (reference value: 18.33%). It counts as functional.
In assay [17] the test system is LNCaP C4-2B. Put plainly: Induction of cell cycle arrest in human LNCaP C4-2B cells assessed as accumulation cells at G0/G1 phase at 40 uM measured after 48 hrs incubation by flow cytometry (reference value: 70.82%). In kind it is functional.
The subject of assay [18] is LNCaP C4-2B. Put plainly: Induction of cell cycle arrest in human LNCaP C4-2B cells assessed as accumulation cells at G2/M phase at 40 uM measured after 48 hrs incubation by flow cytometry (reference value: 10.85%). It counts as functional.
Assay [19] deals with LNCaP C4-2B. Put plainly: Induction of cell cycle arrest in human LNCaP C4-2B cells assessed as accumulation cells at S phase at 40 uM measured after 48 hrs incubation by flow cytometry (reference value: 18.33%). It counts as functional.
Assay [20] concerns LNCaP. Put plainly: Inhibition of AR protein expression in human LNCaP cells measured after 48 hrs by Western blot analysis. In kind it is functional, cell-based. As to conditions: dose 12.5-50 µM. On the technique in general: A western blot detects proteins with antibodies after separation by electrophoresis.
Assay [21] relates to LNCaP C4-2B. Put plainly: Inhibition of AR protein expression in human LNCaP C4-2B cells measured after 48 hrs by Western blot analysis. As to conditions: dose 12.5-50 µM. It counts as functional, cell-based.

As to `COC(=O)c1ccc(C)cc1NC(=O)COc1cccc2ccccc12`, in assay [1], the outcome was inactive.

The term pIC50 denotes the negative decadic logarithm of the IC50, by convention in mol/L. For the compound `COC(=O)c1ccc(Cl)cc1NC(=O)COc1cccc2cnccc12`, in [1], the negative-log IC50 (pIC50) was 4.60.

Consider `COC(=O)c1cc(F)c(Cl)cc1NC(=O)COc1cccc2ccccc12`, for which the pIC50 in [1] is 4.38.

In the case of `O=C(COc1cccc2ccccc12)Nc1cc(Cl)ccc1C(=O)O`, the pIC50 in [1] is less than 4.30. For the same compound, in assay [2], the result was inactive.

Take `COC(=O)c1ccc(Br)cc1NC(=O)COc1cccc2ccccc12`: the pIC50 in assay [1] was 4.31.

Take `COC(=O)c1ccc(Cl)cc1NC(=O)COc1ccc(OC)c2ccccc12`: the result in assay [1] was inactive.

`COC(=O)c1ccc(OC)cc1NC(=O)COc1cccc2ccccc12`: the pIC50 in [1] was 4.71.

Regarding `COC(=O)c1ccc(Cl)cc1NC(=O)COc1ccc(Cl)c2ccccc12`, the negative logarithm of the IC50 (pIC50) in assay [1] is 4.70.

`COC(=O)c1ccc(Cl)cc1NC(=O)COc1ccc(Br)c2ccccc12`: the results for the pIC50 in assay [1] and in [2] were 4.88 and less than 4.30, respectively. Moreover, the inhibition entry in assay [3] was “Dose-Dependent Effect”.

Take `COC(=O)c1ccc(Cl)cc1NC(=O)COc1cccc2ccccc12`: the pIC50 in assay [1] was 4.77; in [2] it was 4.47.

Regarding `COC(=O)c1ccc(Cl)cc1NC(=O)COc1ccnc2ccccc12`, in assay [1], the pIC50 is 4.49.

`COC(=O)c1ccc(Cl)cc1NC(=O)C(C)Oc1cccc2ccccc12` (stereo not given): the negative logarithm of the IC50 (pIC50) in assay [1] is 4.72.

Turning to `COC(=O)c1ccc(F)cc1NC(=O)COc1cccc2ccccc12`, the pIC50 in assay [1] is 4.49.

In the case of `COC(=O)c1ccc(Cl)cc1NC(=O)COc1ccc(F)c2ccccc12`, the outcome in assay [1] was inactive.

Turning to `COC(=O)c1ccc(I)cc1NC(=O)COc1cccc2ccccc12`, the pIC50 in assay [1] was 4.91; in assay [2], 5.06. The Activity came to 34.5% in assay [4]; 79% in assay [5]; 92.9% in assay [6]; 96.6% in [7]; 70.84% in assay [8]; 11.05% in assay [9]. Besides, the Activity turned out to be 18.11% in [10]; 71.03% in assay [11]; 11.44% in assay [12]; 17.53% in assay [13]; 77.27% in assay [14]; 10.12% in assay [15]. The Activity amounted to 12.61% in assay [16], 79.62% in assay [17], 8.84% in [18] and 11.54% in [19]. For the same compound, the inhibition result in [20] and in assay [21] was “Dose-Dependent Effect” each time.

In the case of `CNC(=O)c1ccc(Cl)cc1NC(=O)COc1cccc2ccccc12`, the pIC50 in assay [1] is 4.47.

Consider `COC(=O)c1ccc(C(F)(F)F)cc1NC(=O)COc1cccc2ccccc12`, for which the result in [1] was inactive.
